These results are taken from ChEMBL document CHEMBL1158828, “(+)-Myristinins A and D from Knema elegans, which inhibit DNA polymerase beta and cleave DNA” (J Nat Prod, 2005).

Activity calls are given as the source filed them. The rule behind the calls is not given here.

The target of assay [1] is T1, DNA polymerase beta (Rattus norvegicus, UniProt P06766). Put plainly: Inhibition of rat recombinant DNA polymerase beta in presence of bovine serum albumin.
Assay [2] has as its target T1, DNA polymerase beta. Description: Inhibition of rat recombinant DNA polymerase beta in absence of bovine serum albumin.
The target of assay [3] is T1, DNA polymerase beta. Description: Activity of rat recombinant DNA polymerase beta using variable levels of DNA template-primer.
Assay [4] concerns the target DNA polymerase beta (Rattus norvegicus) (UniProt P06766). Put plainly: Activity of rat recombinant DNA polymerase beta using variable levels of dNTP concentration.
In assay [5] the test system is Escherichia coli. Description: Induction of strand scission activity in Escherichia coli supercoiled pSP64 DNA assessed as relaxation of DNA after 1 hr by agarose gel electrophoresis in presence of Cu2+.
The nature of assay [6]: Potentiation of bleomycin-induced cytotoxicity against mouse P388D1 cells assessed as reduction in cell viability at 9 uM after 6 hrs by trypan blue exclusion test. Format: functional.
Assay [7] relates to Escherichia coli. Description: Induction of strand scission activity in Escherichia coli supercoiled pSP64 DNA assessed as relaxation of DNA at 10 µM by agarose gel electrophoresis in presence of Cu2+.

Broadly, the IC50 is the point on the concentration scale where inhibition reaches its midpoint. As usually defined, the Ki is a dissociation constant, usually derived from enzyme kinetics or from competition with a known ligand. Take `O=C(CCCCCCCCc1ccccc1)c1c(O)cc(O)c([C@@H]2C[C@@H](c3ccc(O)cc3)Oc3cc(O)ccc32)c1O`: the figures for the IC50 at DNA polymerase beta [1] and at DNA polymerase beta [2] were 4.3 µM and 1.2 µM, respectively. Further, at DNA polymerase beta [3], the Ki was found to be 12 µM. Further, the Kii in assay [4] came to 0.8 µM. In addition, the Kis in assay [4] was found to be 23 µM. The values for the Activity entry (with Escherichia coli [5]; in assay [6]) were “Dose-dependent effect” and 30%, respectively. In addition, the outcome in the assay with Escherichia coli [7] was Active.
For the compound `CCCCCCCCCCCC(=O)c1c(O)cc(O)c([C@@H]2C[C@@H](c3ccc(O)cc3)Oc3cc(O)ccc32)c1O`, the results for the IC50 on DNA polymerase beta [1] and at DNA polymerase beta [2] were 12 µM and 2.7 µM, respectively. In addition, the Ki on DNA polymerase beta [3] came out at 11 µM. In assay [4], the Kii came to 4.3 µM. Besides, in assay [4], the Kis was determined as 8.2 µM. Besides, the Activity result was “Dose-dependent effect” with Escherichia coli [5] and 30% in assay [6]. The result in the assay with Escherichia coli [7] was Active.
